Assays:
Assay type in all cases: in vivo
Conditions in all cases: treatment dosage 320 g/ha
Indian mallow [1] = assay: Test Example 4: weedkilling efficacy by foliar treatment; K: Indian mallow
Procedure, shortened: (§1)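 Seeds are spot-sown into sterilized diluvial soil and covered with about 1.5 cm of soil. After 14 days' greenhouse growth at 25 to 30° C, plants are sprayed on stems and leaves with diluted emulsion at the stated g/ha rate, then scored at 3 weeks.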

soybean [2] = assay: Test Example 4: foliar treatment, effect on crop; d: soybean
Procedure, shortened: as §1

bulrush [3] = assay: Test Example 1: weedkilling efficacy, preemergent weed treatment in the submerged state; B: bulrush
Procedure, shortened: (§2)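 Submerged pre-emergence treatment, water-surface application of compound emulsion at g/ha dosages; 4 cm flooded alluvial soil, weeds sown and 2.5-leaf rice transplanted same day. Rated after 3 weeks, greenhouse.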

wheat [4] = assay: Test Example 4: foliar treatment, effect on crop; e: wheat
Procedure, shortened: as §1

rapeseed [5] = assay: Test Example 3: soil treatment, effect on crop; g: rapeseed
Procedure, shortened: (§3)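 Crop and weed responses were judged three weeks after a uniform surface spray of the water-diluted emulsion at the given g/ha rate. Seeds sat beneath about 1.5 cm of sterilized diluvial soil, and boxes stood in a greenhouse at 25 to 30° C.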

bulrush [6] = assay: Test Example 2: weedkilling efficacy, growth period weed treatment in the submerged state; B: bulrush
Procedure, shortened: (§4)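 Seedlings at 1-2 leaves in 4 cm-deep submerged alluvial soil received emulsion formulations on the water surface, dosed per hectare; effects were judged 3 weeks on.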

barnyard grass [7] = assay: Test Example 4: weedkilling efficacy by foliar treatment; F: barnyard grass
Procedure, shortened: as §1

Indian mallow [8] = assay: Test Example 3: weedkilling efficacy through soil treatment; K: Indian mallow
Procedure, shortened: as §3

redroot pigweed [9] = assay: Test Example 3: weedkilling efficacy through soil treatment; L: redroot pigweed
Procedure, shortened: as §3

barnyard grass [10] = assay: Test Example 1: weedkilling efficacy, preemergent weed treatment in the submerged state; A: barnyard grass
Procedure, shortened: as §2

crabgrass [11] = assay: Test Example 4: weedkilling efficacy by foliar treatment; D: crabgrass
Procedure, shortened: as §1

directly sown rice [12] = assay: Test Example 3: soil treatment, effect on crop; b: directly sown rice
Procedure, shortened: as §3

birds-eye speedwell [13] = assay: Test Example 4: weedkilling efficacy by foliar treatment; p: birds-eye speedwell
Procedure, shortened: as §1

black-grass [14] = assay: Test Example 3: weedkilling efficacy through soil treatment; H: black-grass
Procedure, shortened: as §3

chickweed [15] = assay: Test Example 3: weedkilling efficacy through soil treatment; N: chickweed
Procedure, shortened: as §3

chickweed [16] = assay: Test Example 4: weedkilling efficacy by foliar treatment; N: chickweed
Procedure, shortened: as §1

soybean [17] = assay: Test Example 3: soil treatment, effect on crop; d: soybean
Procedure, shortened: as §3

Italian ryegrass [18] = assay: Test Example 3: weedkilling efficacy through soil treatment; I: Italian ryegrass
Procedure, shortened: as §3

wild oat [19] = assay: Test Example 3: weedkilling efficacy through soil treatment; G: wild oat
Procedure, shortened: as §3

green foxtail [20] = assay: Test Example 4: weedkilling efficacy by foliar treatment; E: green foxtail
Procedure, shortened: as §1

barnyard grass [21] = assay: Test Example 2: weedkilling efficacy, growth period weed treatment in the submerged state; A: barnyard grass
Procedure, shortened: as §4

common wind-grass [22] = assay: Test Example 3: weedkilling efficacy through soil treatment; J: common wind-grass
Procedure, shortened: as §3

directly sown rice [23] = assay: Test Example 4: foliar treatment, effect on crop; b: directly sown rice
Procedure, shortened: as §1

birds-eye speedwell [24] = assay: Test Example 3: weedkilling efficacy through soil treatment; p: birds-eye speedwell
Procedure, shortened: as §3

catchweed [25] = assay: Test Example 3: weedkilling efficacy through soil treatment; O: catchweed
Procedure, shortened: as §3

corn [26] = assay: Test Example 3: soil treatment, effect on crop; c: corn
Procedure, shortened: as §3

fig-leafed goosefoot = assay: Test Example 3: weedkilling efficacy through soil treatment; M: fig-leafed goosefoot
Procedure, shortened: as §3

redroot pigweed [27] = assay: Test Example 4: weedkilling efficacy by foliar treatment; L: redroot pigweed
Procedure, shortened: as §1

crabgrass [28] = assay: Test Example 3: weedkilling efficacy through soil treatment; D: crabgrass
Procedure, shortened: as §3

beet [29] = assay: Test Example 3: soil treatment, effect on crop; f: beet
Procedure, shortened: as §3

common wind-grass [30] = assay: Test Example 4: weedkilling efficacy by foliar treatment; J: common wind-grass
Procedure, shortened: as §1

beet [31] = assay: Test Example 4: foliar treatment, effect on crop; f: beet
Procedure, shortened: as §1

green foxtail [32] = assay: Test Example 3: weedkilling efficacy through soil treatment; E: green foxtail
Procedure, shortened: as §3

Italian ryegrass [33] = assay: Test Example 4: weedkilling efficacy by foliar treatment; I: Italian ryegrass
Procedure, shortened: as §1

catchweed [34] = assay: Test Example 4: weedkilling efficacy by foliar treatment; O: catchweed
Procedure, shortened: as §1

barnyard grass [35] = assay: Test Example 3: weedkilling efficacy through soil treatment; F: barnyard grass
Procedure, shortened: as §3

oval-leafed pondweed [36] = assay: Test Example 2: weedkilling efficacy, growth period weed treatment in the submerged state; C: oval-leafed pondweed
Procedure, shortened: as §4

black-grass [37] = assay: Test Example 4: weedkilling efficacy by foliar treatment; H: black-grass
Procedure, shortened: as §1

wheat [38] = assay: Test Example 3: soil treatment, effect on crop; e: wheat
Procedure, shortened: as §3

oval-leafed pondweed [39] = assay: Test Example 1: weedkilling efficacy, preemergent weed treatment in the submerged state; C: oval-leafed pondweed
Procedure, shortened: as §2

rapeseed [40] = assay: Test Example 4: foliar treatment, effect on crop; g: rapeseed
Procedure, shortened: as §1

transplanted rice = assay: Test Example 1: preemergent weed treatment in the submerged state, effect on crop; a: transplanted rice
Procedure, shortened: as §2

wild oat [41] = assay: Test Example 4: weedkilling efficacy by foliar treatment; G: wild oat
Procedure, shortened: as §1

corn [42] = assay: Test Example 4: foliar treatment, effect on crop; c: corn
Procedure, shortened: as §1

COc1cc(Cl)nc(NC(=O)C(C)(C)N2COC(C)=C(c3ccccc3)C2=O)c1 [B-2-47]
K (Indian mallow) weedkilling efficacy grade (Indian mallow [1]): 0 (weed kill ratio 5% or less (practically no effect)) | d (soybean) effect on crop grade (soybean [2]): 0 (weed kill ratio 5% or less (practically no effect)) | B (bulrush) weedkilling efficacy grade (bulrush [3]): 5 (weed kill ratio 90% or more, (practically complete withering)) | e (wheat) effect on crop grade (wheat [4]): 0 (weed kill ratio 5% or less (practically no effect)) | g (rapeseed) effect on crop grade (rapeseed [5]): 3 (weed kill ratio 40% or more, less than 70%) | B (bulrush) weedkilling efficacy grade (bulrush [6]): 5 (weed kill ratio 90% or more, (practically complete withering)) | F (barnyard grass) weedkilling efficacy grade (barnyard grass [7]): 1 (weed kill ratio 5% or more, less than 20%) | K (Indian mallow) weedkilling efficacy grade (Indian mallow [8]): 0 (weed kill ratio 5% or less (practically no effect)) | L (redroot pigweed) weedkilling efficacy grade (redroot pigweed [9]): 0 (weed kill ratio 5% or less (practically no effect)) | A (barnyard grass) weedkilling efficacy grade (barnyard grass [10]): 5 (weed kill ratio 90% or more, (practically complete withering)) | D (crabgrass) weedkilling efficacy grade (crabgrass [11]): 3 (weed kill ratio 40% or more, less than 70%) | b (directly sown rice) effect on crop grade (directly sown rice [12]): 3 (weed kill ratio 40% or more, less than 70%) | P (birds-eye speedwell) weedkilling efficacy grade (birds-eye speedwell [13]): 4 (weed kill ratio 70% or more, less than 90%) | H (black-grass) weedkilling efficacy grade (black-grass [14]): 5 (weed kill ratio 90% or more, (practically complete withering)) | N (chickweed) weedkilling efficacy grade (chickweed [15]): 3 (weed kill ratio 40% or more, less than 70%) | N (chickweed) weedkilling efficacy grade (chickweed [16]): 2 (weed kill ratio 20% or more, less than 40%) | d (soybean) effect on crop grade (soybean [17]): 0 (weed kill ratio 5% or less (practically no effect)) | I (Italian ryegrass) weedkilling efficacy grade (Italian ryegrass [18]): 5 (weed kill ratio 90% or more, (practically complete withering)) | G (wild oat) weedkilling efficacy grade (wild oat [19]): 2 (weed kill ratio 20% or more, less than 40%) | E (green foxtail) weedkilling efficacy grade (green foxtail [20]): 4 (weed kill ratio 70% or more, less than 90%) | A (barnyard grass) weedkilling efficacy grade (barnyard grass [21]): 5 (weed kill ratio 90% or more, (practically complete withering)) | J (common wind-grass) weedkilling efficacy grade (common wind-grass [22]): 5 (weed kill ratio 90% or more, (practically complete withering)) | b (directly sown rice) effect on crop grade (directly sown rice [23]): 0 (weed kill ratio 5% or less (practically no effect)) | P (birds-eye speedwell) weedkilling efficacy grade (birds-eye speedwell [24]): 5 (weed kill ratio 90% or more, (practically complete withering)) | O (catchweed) weedkilling efficacy grade (catchweed [25]): 4 (weed kill ratio 70% or more, less than 90%) | c (corn) effect on crop grade (corn [26]): 0 (weed kill ratio 5% or less (practically no effect)) | M (fig-leafed goosefoot) weedkilling efficacy grade (fig-leafed goosefoot): 2 (weed kill ratio 20% or more, less than 40%) | L (redroot pigweed) weedkilling efficacy grade (redroot pigweed [27]): 0 (weed kill ratio 5% or less (practically no effect)) | D (crabgrass) weedkilling efficacy grade (crabgrass [28]): 4 (weed kill ratio 70% or more, less than 90%) | f (beet) effect on crop grade (beet [29]): 2 (weed kill ratio 20% or more, less than 40%) | J (common wind-grass) weedkilling efficacy grade (common wind-grass [30]): 4 (weed kill ratio 70% or more, less than 90%) | f (beet) effect on crop grade (beet [31]): 3 (weed kill ratio 40% or more, less than 70%) | E (green foxtail) weedkilling efficacy grade (green foxtail [32]): 5 (weed kill ratio 90% or more, (practically complete withering)) | I (Italian ryegrass) weedkilling efficacy grade (Italian ryegrass [33]): 2 (weed kill ratio 20% or more, less than 40%) | O (catchweed) weedkilling efficacy grade (catchweed [34]): 3 (weed kill ratio 40% or more, less than 70%) | F (barnyard grass) weedkilling efficacy grade (barnyard grass [35]): 4 (weed kill ratio 70% or more, less than 90%) | C (oval-leafed pondweed) weedkilling efficacy grade (oval-leafed pondweed [36]): 5 (weed kill ratio 90% or more, (practically complete withering)) | H (black-grass) weedkilling efficacy grade (black-grass [37]): 2 (weed kill ratio 20% or more, less than 40%) | e (wheat) effect on crop grade (wheat [38]): 0 (weed kill ratio 5% or less (practically no effect)) | C (oval-leafed pondweed) weedkilling efficacy grade (oval-leafed pondweed [39]): 5 (weed kill ratio 90% or more, (practically complete withering)) | g (rapeseed) effect on crop grade (rapeseed [40]): 3 (weed kill ratio 40% or more, less than 70%) | a (transplanted rice) effect on crop grade (transplanted rice): 1 (weed kill ratio 5% or more, less than 20%) | G (wild oat) weedkilling efficacy grade (wild oat [41]): 2 (weed kill ratio 20% or more, less than 40%) | c (corn) effect on crop grade (corn [42]): 0 (weed kill ratio 5% or less (practically no effect))
